Measurements as given in US11365199B2, “Pyrazole compounds as modulators of FSHR and uses thereof” (Merck Patent GmbH, priority 2013, dated 2022).
Like-named read-outs stand apart in the source and are kept apart here.

What was measured:
[1] = molecular target: T1, FSHR (Homo sapiens, UniProt P23945); assay: EC50 of cyclic AMP production in CHO FSHR cells + EC20 FSH (Assay A); type: cell-based; conditions: CHO FSHR cells + EC20 FSH, cAMP HTRF; read-out: Assay A: EC50 of cyclic AMP production
T1 construct: expressed in transfected cells; host or cells: CHO (Cho-FSHR-LUC-1-1-43)
T1 sequence (P23945 18-695): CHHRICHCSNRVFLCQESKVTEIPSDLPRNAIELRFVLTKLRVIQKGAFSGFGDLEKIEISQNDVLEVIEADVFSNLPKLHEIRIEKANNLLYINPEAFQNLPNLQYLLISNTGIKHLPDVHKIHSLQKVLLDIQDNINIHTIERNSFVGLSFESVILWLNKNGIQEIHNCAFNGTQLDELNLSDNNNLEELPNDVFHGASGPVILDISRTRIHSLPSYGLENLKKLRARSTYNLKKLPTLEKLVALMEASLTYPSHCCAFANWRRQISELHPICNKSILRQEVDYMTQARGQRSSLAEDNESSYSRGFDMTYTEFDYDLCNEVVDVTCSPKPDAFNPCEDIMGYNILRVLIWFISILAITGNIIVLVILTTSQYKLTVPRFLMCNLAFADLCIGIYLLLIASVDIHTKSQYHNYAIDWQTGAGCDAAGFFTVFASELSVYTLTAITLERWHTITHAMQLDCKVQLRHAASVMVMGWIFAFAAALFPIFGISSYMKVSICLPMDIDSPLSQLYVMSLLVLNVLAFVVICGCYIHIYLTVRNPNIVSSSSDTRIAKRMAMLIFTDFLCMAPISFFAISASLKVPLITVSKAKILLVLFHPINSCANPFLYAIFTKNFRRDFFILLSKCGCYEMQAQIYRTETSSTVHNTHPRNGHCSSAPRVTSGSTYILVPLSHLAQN
Summary of the method: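 Cho-FSHR-LUC cells were exposed to compound dilution series with EC20 FSH ([…]) and 200 μM IBMX for 1 h at 37° C. cAMP was read by HTRF (665/620 nm ratio). Effects are percent of the maximal FSH standard response.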

[2] = molecular target: T2, follicle-stimulating hormone (FSH) receptor (Rattus norvegicus, UniProt P20395); assay: Rat granulosa EC50 FSH (Assay B); type: cell-based; conditions: for EC50: rat granulosa cells, read-out: Assay B: Rat granulosa EC50 FSH; for Emax at 30 µM / Emax at 6 µM: read-out: Assay B: percental effect (response) relative to the maximum response of the FSH standard
T2 construct: endogenous in cells; host or cells: primary rat granulosa cells
T2 sequence (P20395 18-692): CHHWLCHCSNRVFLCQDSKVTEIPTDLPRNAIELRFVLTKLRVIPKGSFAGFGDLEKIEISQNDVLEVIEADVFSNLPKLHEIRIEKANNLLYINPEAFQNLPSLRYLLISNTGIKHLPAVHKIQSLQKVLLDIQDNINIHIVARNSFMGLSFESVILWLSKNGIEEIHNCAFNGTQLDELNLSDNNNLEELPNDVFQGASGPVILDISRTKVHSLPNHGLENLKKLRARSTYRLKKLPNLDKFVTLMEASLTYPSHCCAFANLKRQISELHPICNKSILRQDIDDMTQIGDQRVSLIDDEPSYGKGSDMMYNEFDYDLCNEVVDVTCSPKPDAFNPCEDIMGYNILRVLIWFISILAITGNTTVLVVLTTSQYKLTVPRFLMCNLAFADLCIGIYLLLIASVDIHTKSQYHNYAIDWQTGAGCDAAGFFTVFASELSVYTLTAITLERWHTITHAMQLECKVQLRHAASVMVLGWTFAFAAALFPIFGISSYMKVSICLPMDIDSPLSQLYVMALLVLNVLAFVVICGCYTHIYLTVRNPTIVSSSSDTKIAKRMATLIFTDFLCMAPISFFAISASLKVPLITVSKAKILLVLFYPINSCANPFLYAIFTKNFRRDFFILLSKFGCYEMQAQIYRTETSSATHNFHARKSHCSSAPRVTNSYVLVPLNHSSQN
Description: Rat Granulosa EC50 FSH (Assay B)
The assay was performed pursuant to the teaching of Yanofsky et al. (2006) Allosteric activation of the follicle-stimulating hormone (FSH) receptor by selective, nonpeptide agonists (JBC 281(19): 13226-13233, which is incorporated by reference in the disclosure of the invention).

Compound	EC50 [1]	EC50 [2]	also measured
COc1cc2c(cc1-c1cn[nH]c1)-c1c(c(C(=O)N(C)C(C)(C)C)nn1-c1ccsc1)CO2 [Compound 1, 7-Methoxy-8-(1H-pyrazol-4-yl)-1-thiophen-3-yl-1,4-dihydro-chromeno[4,3-c]pyrazole-3-carboxylic Acid tert-butyl-methyl-amide]	< 100 nM	< 100 nM	–
COc1cc2c(cc1-c1cccnc1)-c1c(c(C(=O)N(C)C(C)(C)C)nn1-c1ccsc1)CO2 [Compound 2, 7-Methoxy-8-pyridin-3-yl-1-thiophen-3-yl-1,4-dihydro-chromeno[4,3-c]pyrazole-3-carboxylic Acid tert-butyl-methyl-amide]	< 100 nM	–	Emax at 30 µM [2]: 54%
COc1cc2c(cc1-c1cccnc1)-c1c(c(C(=O)N3CCCN(C(=O)C4CCC4)CC3)nn1-c1ccsc1)CO2 [Compound 3, (4-Cyclobutanecarbonyl-[1,4]diazepan-1-yl)-(7-methoxy-8-pyridin-3-yl-1-thiophen-3-yl-1,4-dihydro-chromeno[4,3-c]pyrazol-3-yl)-methanone]	< 100 nM	1000 to 5000 nM	–
COc1cc2c(cc1Br)-c1c(c(C(=O)N(C)C(C)(C)C)nn1-c1ccsc1)CO2 [Compound 4, 8-Bromo-7-methoxy-1-thiophen-3-yl-1,4-dihydro-chromeno[4,3-c]pyrazole-3-carboxylic Acid tert-butyl-methyl-amide]	100 to 1000 nM	–	Emax at 6 µM [2]: 62%
COc1cc2c(cc1CC(C)C)-c1c(c(C(=O)N(C)C(C)(C)C)nn1-c1ccsc1)CO2 [Compound 5, 8-Isobutyl-7-methoxy-1-thiophen-3-yl-1,4-dihydro-chromeno[4,3-c]pyrazole-3-carboxylic Acid tert-butyl-methyl-amide]	< 100 nM	1000 to 5000 nM	–
COc1cc2c(cc1C=C(C)C)-c1c(c(C(=O)N(C)C(C)(C)C)nn1-c1ccsc1)CO2 [Compound 6, 7-Methoxy-8-(2-methyl-propenyl)-1-thiophen-3-yl-1,4-dihydro-chromeno[4,3-c]pyrazole-3-carboxylic Acid tert-butyl-methyl-amide]	< 100 nM	1000 to 5000 nM	–
COc1cc2c(cc1C=C(C)C)-c1c(c(C(=O)NCCNC(C)=O)nn1-c1ccsc1)CO2 [Compound 7, 7-Methoxy-8-(2-methyl-propenyl)-1-thiophen-3-yl-1,4-dihydro-chromeno[4,3-c]pyrazole-3-carboxylic Acid (2-acetylamino-ethyl)-amide]	1000 to 5000 nM	–	Emax at 6 µM ([2]; @ 6 μM): 43.5%
COc1cc2c(cc1C=C(C)C)-c1c(c(C(=O)NCCCN3CCOC3=O)nn1-c1ccsc1)CO2 [Compound 9, 7-Methoxy-8-(2-methyl-propenyl)-1-thiophen-3-yl-1,4-dihydro-chromeno[4,3-c]pyrazole-3-carboxylic acid [3-(2-oxo-oxazolidin-3-yl)-propyl]-amide]	1000 to 5000 nM	–	Emax at 30 µM ([2]; @ 30 μM): 40.5%
COc1cc2c(cc1C=C(C)C)-c1c(c(C(=O)NC(C)(C)CO)nn1-c1ccsc1)CO2 [Compound 10, 7-Methoxy-8-(2-methyl-propenyl)-1-thiophen-3-yl-1,4-dihydro-chromeno[4,3-c]pyrazole-3-carboxylic acid (2-hydroxy-1,1-dimethyl-ethyl)-amide]	100 to 1000 nM	1000 to 5000 nM	–
COc1cc2c(cc1C#N)-c1c(c(C(=O)N(C)C(C)(C)C)nn1-c1ccsc1)CO2 [Compound 12, 8-Cyano-7-methoxy-1-thiophen-3-yl-1,4-dihydro-chromeno[4,3-c]pyrazole-3-carboxylic Acid tert-butyl-methyl-amide]	< 100 nM	1000 to 5000 nM	–
COc1cc2c(cc1C=C(C)C)-c1c(c(C(=O)NCCN3CCOC3=O)nn1-c1ccsc1)CO2 [Compound 13, 7-Methoxy-8-(2-methyl-propenyl)-1-thiophen-3-yl-1,4-dihydro-chromeno[4,3-c]pyrazole-3-carboxylic acid [2-(2-oxo-oxazolidin-3-yl)-ethyl]-amide]	100 to 1000 nM	1000 to 5000 nM	–
COC(=O)C1CCCN(C(=O)c2nn(-c3ccsc3)c3c2COc2cc(OC)c(C=C(C)C)cc2-3)CC1 (centres unmarked) [Compound 17, 1-[7-Methoxy-8-(2-methyl-propenyl)-1-thiophen-3-yl-1,4-dihydro-chromeno[4,3-c]pyrazole-3-carbonyl]-azepane-4-carboxylic acid methyl ester]	100 to 1000 nM	> 5000 nM	–
COc1cc2c(cc1C=C(C)C)-c1c(c(C(=O)N3CCCC(C(=O)O)CC3)nn1-c1ccsc1)CO2 (centres unmarked) [Compound 18, 1-[7-Methoxy-8-(2-methyl-propenyl)-1-thiophen-3-yl-1,4-dihydro-chromeno[4,3-c]pyrazole-3-carbonyl]-azepane-4-carboxylic acid]	1000 to 5000 nM	–	Emax at 30 µM ([2]; @ 30 μM): 30%
COc1cc2c(cc1OC(C)C)-c1c(c(C(=O)N(C)C(C)(C)C)nn1-c1ccsc1)CO2 [Compound 19, 8-Isopropoxy-7-methoxy-1-thiophen-3-yl-1,4-dihydro-chromeno[4,3-c]pyrazole-3-carboxylic Acid tert-butyl-methyl-amide]	< 100 nM	1000 to 5000 nM	–
COc1cc2c(cc1-c1cnn(C(=O)OC(C)(C)C)c1)-c1c(c(C(=O)N(C)C(C)(C)C)nn1-c1ccsc1)CO2 [Compound 20, 4-[3-(tert-Butyl-methyl-carbamoyl)-7-methoxy-1-thiophen-3-yl-1,4-dihydro-chromeno[4,3-c]pyrazol-8-yl]-pyrazole-1-carboxylic acid tert-butyl ester]	100 to 1000 nM	100 to 1000 nM	–
COc1cc2c(cc1-c1cnn(CCN3CCCC3)c1)-c1c(c(C(=O)N3CCOCC3(C)C)nn1-c1ccsc1)CO2 [Compound 206, (3,3-Dimethyl-morpholin-4-yl)-{7-methoxy-8-[1-(2-pyrrolidin-1-yl-ethyl)-1H-pyrazol-4-yl]-1-thiophen-3-yl-1,4-dihydro-chromeno[4,3-c]pyrazol-3-yl}-methanone]	100 to 1000 nM	–	–
C=CCn1cc(-c2cc3c(cc2OC)OCc2c(C(=O)N4CCOCC4(C)C)nn(-c4ccsc4)c2-3)cn1 [Compound 207, [8-(1-Allyl-1H-pyrazol-4-yl)-7-methoxy-1-thiophen-3-yl-1,4-dihydro-chromeno[4,3-c]pyrazol-3-yl]-(3,3-dimethyl-morpholin-4-yl)-methanone]	< 100 nM	–	–
CCCn1nc(C)cc1-c1cc2c(cc1OC)OCc1c(C(=O)N3CCOCC3(C)C)nn(-c3ccsc3)c1-2 [Compound 212, (3,3-Dimethyl-morpholin-4-yl)-[7-methoxy-8-(5-methyl-2-propyl-2H-pyrazol-3-yl)-1-thiophen-3-yl-1,4-dihydro-chromeno[4,3-c]pyrazol-3-yl]-methanone]	< 100 nM	–	–
CCn1nccc1-c1cc2c(cc1OC)OCc1c(C(=O)N3CCOCC3(C)C)nn(-c3ccsc3)c1-2 [Compound 213, (3,3-Dimethyl-morpholin-4-yl)-[8-(2-ethyl-2H-pyrazol-3-yl)-7-methoxy-1-thiophen-3-yl-1,4-dihydro-chromeno[4,3-c]pyrazol-3-yl]-methanone]	< 100 nM	–	–
COc1cc2c(cc1-c1ccn(C)n1)-c1c(c(C(=O)N3CCN(C(C)=O)CC3(C)C)nn1-c1ccsc1)CO2 [Compound 216]	< 100 nM	–	–
